Where no end group is shown, it is not given here.
Columns and labels:
Assay type in all cases: cell-based
U937 macrophage line = conditions: MTT; peptide 20 and 200 μM in 1X PBS, 2 h; 5 x 10^4 cells/well; absorbance 570 nm
Procedure: Rv3632 peptides' cytotoxic effect was evaluated by viability assay involving MTT (3- (4,5-dimethylthiazol-2-yl) -2,5-diphenyltetrazolium bromide) tetrazolium reduction, where 5 x 10^4 cells/well were incubated for 2 hours with each peptide at 20 and 200 μM in 1X PBS, using the previously mentioned incubation conditions for the invasion assay; 10% SDS was used as cytotoxicity control. After incubation time had elapsed, 10μL MTT were added to each well and left for 12 hours; the formazan crystals so formed were dissolved with sodium dodecyl sulfate (SDS) for reading absorbance at 570nm on a spectrophotometer (Multiskan GO, Thermo Scientific). Multiskan GO (v. 3.2) software was used for analysing the data.

[1] = test system: Mtb H37Rv entry to U937 macrophages; assay: microbe, parasite or virus in culture; conditions: Mycobacterium tuberculosis, U-937, 480 h, inhibition control at 30 μM, triplicate, read-out: inhibition of mycobacterial entry to U937 monocyte-derived macrophages
[2] = test system: Mtb H37Rv entry to A549 alveolar epithelial cells; assay: microbe, parasite or virus in culture; conditions: Mycobacterium tuberculosis, A549, 480 h, inhibition control at 30 μM, triplicate, read-out: inhibition of mycobacterial entry to A549 epithelial cells

Compound	cytotoxic effect on the U937 macrophage line, result in words (U937 macrophage line)	inhibition at 30 µM [1]	inhibition at 30 µM [2]
TLSTYMRFKDLELRYARIAR [compound 39255]	without having a cytotoxic effect		
C=C1[C@@H](C)[C@H]2[C@H](Cc3ccccc3)NC(=O)[C@]23[C@H](OC(C)=O)/C=C/[C@@](C)(O)C(=O)[C@@H](C)C/C=C/[C@H]3[C@@H]1O [Cytochalasin, Cytochalasin D]		80%	60%

— publication PMC6487176, “Specific Binding Peptides from Rv3632: A Strategy for Blocking Mycobacterium tuberculosis Entry to Target Cells?” (BioMed Research International, 2019)
